These are literature values, as cited in US20240299372A1, “Transdermal Drug Delivery Systems for Administration of a Therapeutically Effective Amount of Apixaban and Other Direct Oral Anticoagulants” (Pike Therapeutics Inc., priority 2023, published 2024).

The conditions of data set [1]: for Absolute oral bioavailability: oral administration; for bioavailability: oral, background statement on GI tract exposure.
The conditions of data set [2]: oral administration; literature refs [1-4].

The bioavailability is dose-corrected exposure relative to a reference, in per cent. Turning to `O=C(NC[C@H]1CN(c2ccc(N3CCOCC3=O)cc2)C(=O)O1)c1ccc(Cl)s1` [Rivaroxaban, 5-chloro-N-[[(5S)-2-oxo-3-[4-(3-oxomorpholin-4-yl)phenyl]-1,3-oxazolidin-5-yl]methyl]thiophene-2-carboxamide], in data set [1], the Absolute oral bioavailability was 80%-100 and the bioavailability was 60-80%. Further, in data set [2], the “bleeding complications as reason for DOAC discontinuation” value (from here on “bleeding complications as reason”) is given as 16.8-24.5%.
As for `COc1ccc(NC(=O)c2ccc(C(=N)N(C)C)cc2)c(C(=O)Nc2ccc(Cl)cn2)c1` [Betrixaban, N-(5-chloropyridin-2-yl)-2-[[4-(N,N-dimethylcarbamimidoyl)benzoyl]amino]-5-methoxybenzamide], in data set [1], the Absolute oral bioavailability entry is “approx. 34%”.
In the case of `COc1ccc(-n2nc(C(N)=O)c3c2C(=O)N(c2ccc(N4CCCCC4=O)cc2)CC3)cc1` [Apixaban, 1-(4-methoxyphenyl)-7-oxo-6-[4-(2-oxopiperidin-1-yl)phenyl]-4,5-dihydropyrazolo[3,4-c]pyridine-3-carboxamide], in data set [1], the Absolute oral bioavailability entry is “approx. 50%”. Moreover, the “bleeding complications as reason” value in data set [2] is on record as 5.7-10.1%.
`[H]/N=C(/N)c1ccc(NCc2nc3cc(C(=O)N(CCC(=O)O)c4ccccn4)ccc3n2C)cc1` [Dabigatran, 3-[[2-[(4-carbamimidoylanilino)methyl]-1-methylbenzimidazole-5-carbonyl]-pyridin-2-ylamino]propanoic acid]: in data set [1], the Absolute oral bioavailability is listed as 3%-7 and the bioavailability was 6%. The “bleeding complications as reason” value in data set [2] was 3.4-9.7%.
As for `CN1CCc2nc(C(=O)N[C@@H]3C[C@@H](C(=O)N(C)C)CC[C@@H]3NC(=O)C(=O)Nc3ccc(Cl)cn3)sc2C1` [Edoxaban, N′-(5-chloropyridin-2-yl)-N-[(1S,2R, 4S)-4-(dimethylcarbamoyl)-2-[(5-methyl-6,7-dihydro-4H-[1,3]thiazolo[5,4-c]pyridine-2-carbonyl)amino]cyclohexyl]oxamide], the Absolute oral bioavailability entry in data set [1] is listed as “approx. 62%”.
